Test results published in PubChem BioAssay AID1963421 (Molecular Pharmacology Branch, DTP, NCI, 2024).
Where “and” joins values, the source holds several entries; their conditions need not be identical. Identical values can stand only once. One block for each compound: values may come before it.

Test system: 519858-162-T-J1-PDC complex spheroid growth, % test/control
Experiment: Anticancer human tumor 519858-162-T-J1-PDC patient-derived colon adenocarcinoma cell line growth inhibition [Asc]
Conditions: for viability, T/C: stronger effect = lower value
How it was run: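 Stromal components (HUVEC and hMSC) are co-assembled with the cancer cells into multicellular spheroids. Drugs are then added singly or paired, at concentrations falling by half-log increments from a clinically achievable maximum, capped at 10 microM without known Cmax.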
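Further: seven day drug exposure begun three days after spheroid seeding.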
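Wherever viability, T/C is given: 100% = DMSO vehicle wells and lower values mean less viable spheroid.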

- IC50 (curve of first compound, second compound 0.00316 µM): > 10000 nM
- IC50 (curve of first compound, second compound 0.01 µM): > 10000 nM
- IC50 (curve of first compound, second compound 0.0316 µM): > 10000 nM
- IC50 (curve of first compound, second compound 0.1 µM): > 10000 nM
- IC50 (curve of first compound, second compound 0.316 µM): > 10000 nM
- IC50 (curve of first compound, second compound 1 µM): > 10000 nM
SMILES: C=CC(=O)N1CCN(c2nc(=O)n(-c3c(C)ccnc3C(C)C)c3nc(-c4c(O)cccc4F)c(F)cc23)C(C)C1 (stereo unspecified) + CNC(C)C(=O)NC1CN(S(=O)(=O)c2cccc(S(=O)(=O)N3CCC4CCC(C(=O)NC(c5ccccc5)c5ccccc5)N4C(=O)C(NC(=O)C(C)NC)C3)c2)CCC2CCC(C(=O)NC(c3ccccc3)c3ccccc3)N2C1=O
- viability, T/C (second compound 0.00316 µM, first compound 0.0316 µM): 125%
- viability, T/C (second compound 0.00316 µM, first compound 0.1 µM): 106%
- viability, T/C (second compound 0.00316 µM, first compound 0.316 µM): 98.9%
- viability, T/C (second compound 0.00316 µM, first compound 1 µM): 75.7%
- viability, T/C (second compound 0.00316 µM, first compound 3.16 µM): 88.3%
- viability, T/C (second compound 0.00316 µM, first compound 10 µM): 89.6%
- viability, T/C (second compound 0.01 µM, first compound 0.0316 µM): 113%
- viability, T/C (second compound 0.01 µM, first compound 0.1 µM): 84%
- viability, T/C (second compound 0.01 µM, first compound 0.316 µM): 101%
- viability, T/C (second compound 0.01 µM, first compound 1 µM): 76.1%
- viability, T/C (second compound 0.01 µM, first compound 3.16 µM): 85.8%
- viability, T/C (second compound 0.01 µM, first compound 10 µM): 92.4%
- viability, T/C (second compound 0.0316 µM, first compound 0.0316 µM): 104%
- viability, T/C (second compound 0.0316 µM, first compound 0.1 µM): 95.4%
- viability, T/C (second compound 0.0316 µM, first compound 0.316 µM): 109%
- viability, T/C (second compound 0.0316 µM, first compound 1 µM): 79.1%
- viability, T/C (second compound 0.0316 µM, first compound 3.16 µM): 101%
- viability, T/C (second compound 0.0316 µM, first compound 10 µM): 90.8%
- viability, T/C (second compound 0.1 µM, first compound 0.0316 µM): 77.9%
- viability, T/C (second compound 0.1 µM, first compound 0.1 µM): 80%
- viability, T/C (second compound 0.1 µM, first compound 0.316 µM): 103%
- viability, T/C (second compound 0.1 µM, first compound 1 µM): 90.4%
- viability, T/C (second compound 0.1 µM, first compound 3.16 µM): 77.9%
- viability, T/C (second compound 0.1 µM, first compound 10 µM): 80.4%
- viability, T/C (second compound 0.316 µM, first compound 0.0316 µM): 85.2%
- viability, T/C (second compound 0.316 µM, first compound 0.1 µM): 94.9%
- viability, T/C (second compound 0.316 µM, first compound 0.316 µM): 95.4%
- viability, T/C (second compound 0.316 µM, first compound 1 µM): 89.2%
- viability, T/C (second compound 0.316 µM, first compound 3.16 µM): 90.5%
- viability, T/C (second compound 0.316 µM, first compound 10 µM): 98.4%
- viability, T/C (second compound 1 µM, first compound 0.0316 µM): 89.7%
- viability, T/C (second compound 1 µM, first compound 0.1 µM): 90.3%
- viability, T/C (second compound 1 µM, first compound 0.316 µM): 80.3%
- viability, T/C (second compound 1 µM, first compound 1 µM): 82%
- viability, T/C (second compound 1 µM, first compound 3.16 µM): 91.1%
- viability, T/C (second compound 1 µM, first compound 10 µM): 88%

- IC50 (curve of compound): > 10000 nM
SMILES: C=CC(=O)N1CCN(c2nc(=O)n(-c3c(C)ccnc3C(C)C)c3nc(-c4c(O)cccc4F)c(F)cc23)C(C)C1 (stereo unspecified)
- viability, T/C (compound 0.0316 µM): 97.6% and 65.2% and 101%
- viability, T/C (compound 0.1 µM): 87.3% and 70.7% and 109%
- viability, T/C (compound 0.316 µM): 105% and 85.9% and 110%
- viability, T/C (compound 1 µM): 87.3% and 95.3% and 117%
- viability, T/C (compound 3.16 µM): 82.4% and 70.7% and 96.5%
- viability, T/C (compound 10 µM): 93.6% and 72% and 104%

- IC50 (curve of first compound, second compound 0.00949 µM): > 1000 nM
- IC50 (curve of first compound, second compound 0.03 µM): > 1000 nM
- IC50 (curve of first compound, second compound 0.0949 µM): > 1000 nM
- IC50 (curve of first compound, second compound 0.3 µM): 749 nM
- IC50 (curve of first compound, second compound 0.949 µM): 301 nM
- IC50 (curve of first compound, second compound 3 µM): > 1000 nM
SMILES: COc1c(OCCCN2CCOCC2)ccc2c3n(c(=NC(=O)c4cnc(N)nc4)nc12)CCN3 + CCN1C(C(=O)NC23CCC(C(=O)O)(CC2)CC3)C(c2cccc(Cl)c2F)C2(C(=O)Nc3cc(Cl)ccc32)C12CCCCC2
- viability, T/C (second compound 0.00949 µM, first compound 0.00316 µM): 75.5%
- viability, T/C (second compound 0.00949 µM, first compound 0.01 µM): 130%
- viability, T/C (second compound 0.00949 µM, first compound 0.0316 µM): 88.6%
- viability, T/C (second compound 0.00949 µM, first compound 0.1 µM): 80.3%
- viability, T/C (second compound 0.00949 µM, first compound 0.316 µM): 70.8%
- viability, T/C (second compound 0.00949 µM, first compound 1 µM): 53%
- viability, T/C (second compound 0.03 µM, first compound 0.00316 µM): 95.3%
- viability, T/C (second compound 0.03 µM, first compound 0.01 µM): 93.1%
- viability, T/C (second compound 0.03 µM, first compound 0.0316 µM): 89.3%
- viability, T/C (second compound 0.03 µM, first compound 0.1 µM): 80.3%
- viability, T/C (second compound 0.03 µM, first compound 0.316 µM): 81.6%
- viability, T/C (second compound 0.03 µM, first compound 1 µM): 57.3%
- viability, T/C (second compound 0.0949 µM, first compound 0.00316 µM): 86.8%
- viability, T/C (second compound 0.0949 µM, first compound 0.01 µM): 80.3%
- viability, T/C (second compound 0.0949 µM, first compound 0.0316 µM): 98.1%
- viability, T/C (second compound 0.0949 µM, first compound 0.1 µM): 77.2%
- viability, T/C (second compound 0.0949 µM, first compound 0.316 µM): 64.2%
- viability, T/C (second compound 0.0949 µM, first compound 1 µM): 55.9%
- viability, T/C (second compound 0.3 µM, first compound 0.00316 µM): 89.8%
- viability, T/C (second compound 0.3 µM, first compound 0.01 µM): 73.2%
- viability, T/C (second compound 0.3 µM, first compound 0.0316 µM): 80.2%
- viability, T/C (second compound 0.3 µM, first compound 0.1 µM): 84.3%
- viability, T/C (second compound 0.3 µM, first compound 0.316 µM): 56.2%
- viability, T/C (second compound 0.3 µM, first compound 1 µM): 47.9%
- viability, T/C (second compound 0.949 µM, first compound 0.00316 µM): 69.6%
- viability, T/C (second compound 0.949 µM, first compound 0.01 µM): 91.1%
- viability, T/C (second compound 0.949 µM, first compound 0.0316 µM): 91%
- viability, T/C (second compound 0.949 µM, first compound 0.1 µM): 47.5%
- viability, T/C (second compound 0.949 µM, first compound 0.316 µM): 60.8%
- viability, T/C (second compound 0.949 µM, first compound 1 µM): 32.1%
- viability, T/C (second compound 3 µM, first compound 0.00316 µM): 78.4%
- viability, T/C (second compound 3 µM, first compound 0.01 µM): 86%
- viability, T/C (second compound 3 µM, first compound 0.0316 µM): 80.6%
- viability, T/C (second compound 3 µM, first compound 0.1 µM): 57.6%
- viability, T/C (second compound 3 µM, first compound 0.316 µM): 60.2%
- viability, T/C (second compound 3 µM, first compound 1 µM): 50.4%
